This note sets out measurements from US6562825B1, “Piperazine derivatives as modulators of chemokine receptor activity” (Astrazeneca UK Limited, priority 1999, dated 2003).

Where a name gives a salt, the structure may show the parent alone.

The melting point is the temperature, or range, at which the solid turns liquid.

On to `CN(C)CCN(C)C(=O)COc1cc(Cl)ccc1C(=O)NCCN1CCN(Cc2ccc(Cl)c(Cl)c2)CC1`, for which the melting point was in the range of 220 to 222 °C.
The value for `CN(C)C(=O)COc1cc(Cl)ccc1C(=O)NCCN1CCN(Cc2ccc(Cl)c(Cl)c2)CC1` (as salt: hydrochloride) [Example 3, 4-Chloro-N-{2-[4-(3,4-dichlorobenzyl)-1-piperazinyl]ethyl}-2-[2-(dimethylamino)-2-oxoethoxy]benzamide dihydrochloride] was 162 to 163 °C.
Molecule `CC(c1ccc(Cl)cc1)N1CCN(CCNC(=O)c2ccc(Cl)cc2OCC(=O)N(C)C)CC1` (stereo not drawn) (as salt: hydrochloride) [Example 9, 4-Chloro-N-(2-{4-[1-(4-chlorophenyl)ethyl]-1-piperazinyl}ethyl)-2-[2-(dimethylamino)-2-oxoethoxy]benzamide hydrochloride] returned a melting point of 216 to 217 °C.
The value for `CCN(CC)C(=O)COc1cc(Cl)ccc1C(=O)NCCN1CCN(Cc2ccc(Cl)c(Cl)c2)CC1` (as salt: hydrochloride) [Example 10, dihydrochloride] was 185 to 188 °C; that for `CN(C)C(=O)COc1cc(Cl)ccc1C(=O)N(C)CCN1CCN(Cc2ccc(Cl)c(Cl)c2)CC1` (as salt: hydrochloride) [Example 13, 4-Chloro-N-{2-[4-(3,4-dichlorobenzyl)-1-piperazinyl]ethyl}-2-[2-dimethylamino)-2-oxoethoxy]-N-methylbenzamide trihydrochloride] was 252 to 253 °C.
In the case of `CN(C)C(=O)COc1cc(Cl)ccc1C(=O)NCCN1CCN(C(c2ccccc2)c2ccccc2)CC1` (as salt: hydrochloride) [Example 14, N-[2-(4-Benzhydryl-1-piperazinyl)ethyl]-4-chloro-2-[2-(dimethylamino)-2-oxoethoxy]benzamide trihydrochloride] it was 228 to 229 °C.
In the case of `CC1CN(Cc2ccc(Cl)c(Cl)c2)C(C)CN1CCNC(=O)c1ccc(Cl)cc1OCC(=O)N(C)C` (stereo not drawn) (as salt: hydrochloride) [Example 16, E-4-Chloro-N-{2-[4-(3,4-dichlorobenzyl)-2,5-dimethyl-1-piperazinyl]ethyl}-2-[2-(dimethylamino)-2-oxoethoxy]benzamide dihydrochloride] it was 220 to 221 °C.
Regarding `CN(C)C(=O)COc1cc(Cl)ccc1C(=O)NCCN1CCN(CCc2ccccc2)CC1` [Example 1, 4-Chloro-2-[2-(dimethylamino)-2-oxoethoxy]-N-[2-(4-phenethyl-1-piperazinyl)ethyl]benzamide], the melting point was 159 to 160 °C.
The value for `O=C(O)COc1cc(Cl)ccc1C(=O)NCCN1CCN(Cc2ccc(Cl)c(Cl)c2)CC1` [Example 2, 2-{5-Chloro-2-[({2-[4-(3,4-dichlorobenzyl)-1-piperazinyl]ethyl}amino)carbonyl]phenoxy}acetic acid] was 118 to 120 °C; that for `CC(CO)NC(=O)COc1cc(Cl)ccc1C(=O)NCCN1CCN(Cc2ccc(Cl)c(Cl)c2)CC1` (stereo not drawn) [Example 4, 4-Chloro-N-{2-[4-(3,4-dichlorobenzyl)-1-piperazinyl]ethyl}-2-{2-[(2-hydroxy-1-methylethyl)amino]-2-oxoethoxy}benzamide] was 115 to 116 °C.
The value for `CC(C)(CO)NC(=O)COc1cc(Cl)ccc1C(=O)NCCN1CCN(Cc2ccc(Cl)c(Cl)c2)CC1` [Example 5, 4-Chloro-N-{2-[4-(3,4-dichlorobenzyl)-1-piperazinyl]ethyl}-2-{2[(2-hydroxy-1,1-dimethylethyl)amino]-2-oxoethoxy}benzamide] was 77 to 78 °C; that for `CNC(=O)COc1cc(Cl)ccc1C(=O)NCCN1CCN(Cc2ccc(Cl)c(Cl)c2)CC1` [Example 6, 4-Chloro-N-{2-[4-(3,4-dichlorobenzyl)-1-piperazinyl]ethyl}-2-[2-(methylamino)-2-oxoethoxy]benzamide] was 137 to 138 °C.
The value for `O=C(NCCN1CCN(Cc2ccc(Cl)c(Cl)c2)CC1)c1ccc(Cl)cc1OCC(=O)N1CCCC1` [Example 7, 4-Chloro-N-{2-[4-(3,4-dichlorobenzyl)-1-piperazinyl]ethyl}-2-[2-oxo-2-(1-pyrrolidinyl)ethoxy]benzamide] was 157 to 158 °C.
In turn, `NC(=O)COc1cc(Cl)ccc1C(=O)NCCN1CCN(Cc2ccc(Cl)c(Cl)c2)CC1` [Example 8, 2-(2-Amino-2-oxoethoxy)-4-chloro-N-{2-[4-(3,4-dichlorobenzyl)-1-piperazinyl]ethyl}benzamide] gave a melting point of 120 to 122 °C.
`O=C(O)CNC(=O)COc1cc(Cl)ccc1C(=O)NCCN1CCN(Cc2ccc(Cl)c(Cl)c2)CC1` [Example 12, 2-[(2-{5-Chloro-2-[({2-[4-(3,4-dichlorobenzyl)-1-piperazinyl]ethyl}amino)carbonyl]phenoxy}acetyl)amino]acetic acid] came in with a melting point of 214 to 216 °C.
